Square brackets hold non-standard residues; d marks the D form. Peptide text beside a SMILES is read from it. d(hArg(Et2)) = CCN=C(NCC)NCCCC[C@@H](N)C(=O)O; hArg(Et2) = CCN=C(NCC)NCCCC[C@H](N)C(=O)O; dPhe(4-Cl) = N[C@H](Cc1ccc(Cl)cc1)C(=O)O; d2Nal = N[C@H](Cc1ccc2ccccc2c1)C(=O)O; d3Pal = N[C@H](Cc1cccnc1)C(=O)O
How the values were obtained:
[1] = system: Luteinizing hormone (LH) blood level; test: LH blood hormone level in patients on home controlled ovarian hyperstimulation method with vaginal elagolix (Example 2); type: in vivo, female patients
Method: On day 9 of the menstrual cycle, the patient is directed to orally take 50 to 150 mg, preferably 100 mg, (one, two, or three 50 mg oral tablets) of clomiphene citrate and to either insert vaginally or take orally, depending on the patient's preference, a gonadotropin-releasing hormone (GnRH) antagonist such as elagolix (marketed as ORILISSA®), instead of the expensive injections of ganirelix acetate (GANIRELEX®) or cetrorelix acetate (marketed as CETROTIDE®) used routinely in conventional practices. A dose of 25 mg (⅛^th of a pill) up to 200 mg of elagolix (1 full pill), preferably 25 mg, will be used, with the dose being the same whether inserted vaginally or taken orally. Elagolix is a GnRH antagonist that is conventionally used in the treatment of pain associated with endometriosis in women, not for the treatment of infertility. By blocking the GnRH receptor, elagolix suppresses LH release by the pituitary gland and thus prevents LH surge. Ultimately, elagolix suppresses gonadal steroid production, thereby reducing circulating levels of sex hormones such as progesterone, estradiol, and testosterone. Elagolix is generally an oral medication (oral tablet), however in the present method, elagolix is a tablet taken mainly as a vaginal suppository, but may be taken orally based on the patient's preference. Additionally, the lowest and most preferred dose of elagolix (25 mg) that is used is one-eighth of the daily dosage conventionally administered for the treatment of endometriosis (e.g., 200 mg to 400 mg daily). […] Alternative GnRH receptor antagonists that can be used instead of elagolix include linzagolix and relugolix.
Five female patients were treated with the controlled ovarian hyperstimulation method described herein using the elagolix pill (vaginal route) instead of the conventional Ganirelex/Cetrotide injectables. On day 3 of the patient's menstrual cycle, the patient orally took 100 mg (two 50 mg oral tablets) of clomiphene citrate and 5 mg (two 2.5 mg oral tablets) of letrozole. The patient then took the same oral dosages of clomiphene citrate and letrozole daily on each of days 4-7 of the patient's menstrual cycle. On day 8 of the patient's menstrual cycle, the patient orally took only 100 mg (two 50 mg oral tablets) of clomiphene citrate, and stopped the letrozole. On day 9 of the menstrual cycle, the patient orally took 100 mg (two 50 mg oral tablets) of clomiphene citrate and inserted vaginally a 50 mg tablet of elagolix as a vaginal suppository. On day 10 of the menstrual cycle, the patient orally took only 100 mg (two 50 mg oral tablets) of clomiphene citrate. On day 11 of the menstrual cycle, the patient orally took 100 mg (two 50 mg oral tablets) of clomiphene citrate and inserted vaginally a 50 mg tablet of elagolix as a vaginal suppository. Also, on day 11, the patient took a home ovulation test in the morning (9:00 am) and in the evening (9:00 pm). For the patients whose ovulation tests were not positive, then on days 12 and 13, the patient took 2 doses of leuprorelin as a nasal spray (1:40 dilution in saline) as follows. On day 12, after taking a home ovulation test at 9:00 am, 2 puffs (sprays) of the nasal spray were self-administered by the patient per nostril. After 12 hours of waiting, at 9:00 pm the patient took a home urine ovulation test and then self-administered 2 more puffs (sprays) of the nasal spray per nostril. On day 13, the patient repeated the procedure of day 12. Luteinizing hormone (LH) blood level was 7.0 mIU/mL on day 11 and dropped to 1.0 mIU/mL on day 13.
(§1) Table 2 below provides a comparison of the efficacy of conventional Ganirelex/Cetrotide injectables treatment for IVF in the five representative patients from Example 1 with the home controlled ovarian hyperstimulation method described herein in the five representative patients from Example 2.

[2] = system: Luteinizing hormone (LH) blood level; test: LH blood hormone level in patients on conventional GnRH antagonist protocol with Ganirelex/Cetrotide injectables (Example 1); type: in vivo, female patients
Method: Five female patients were treated with a GnRH antagonist protocol requiring injections of medications.
One patient, patient no. 1, was injected with 150 Units of FSH on days 3 to 12; half a syringe of 150 mcg/0.5 mL of ganirelix acetate on days 11 and 12; and 50 mg of clomiphene citrate on days 3 to 12; and 2.5 mg of letrozole on days 3 to 7. Luteinizing hormone (LH) blood level was 4.3 mIU/mL on day 10 and dropped to 2 mIU/mL on day 12.
A second patient, patient no. 2, was injected with 75 Units of FSH on days 4 to 12 and 150 Units on day 13; half a syringe of 150 mcg/0.5 mL of ganirelix acetate on days 11 to 13; 50 mg of clomiphene citrate on days 10 to 12, and 2.5 mg of letrozole on days 3 to 7. Luteinizing hormone (LH) blood level was 12.0 mIU/mL on day 11 and dropped to 6.3 mIU/mL on day 13.
Three patients, numbered 3 to 5, were injected with 75, 150 and 225 Units of FSH, respectively, on days 4 to 12 and one third a syringe of 150 mcg/0.5 mL of ganirelix acetate on days 11 to 13. Patient no. 3 received 50 mg of clomiphene citrate on days 4 to 12, and 2.5 mg of letrozole on days 4 to 8. Patient no. 4 received 100 mg of clomiphene citrate and 2.5 mg of letrozole on days 4 to 8, and 50 mg of clomiphene citrate on days 9 to 11. Patient no. 5 received no clomiphene citrate or letrozole. Luteinizing hormone (LH) blood level was 12.0, 18.0 and 14.6 mIU/mL, respectively, on day 10 and dropped to 4.9, 16.0 and 14.1 mIU/mL, respectively, on day 12.
as §1

[3] = Example 2 patient 4, 50 mg elagolix vaginal suppository on days 9 and 11
[4] = Example 2 patient 5, 50 mg elagolix vaginal suppository on days 9 and 11

COc1cccc(-c2c(C)n(Cc3c(F)cccc3C(F)(F)F)c(=O)n(C[C@H](NCCCC(=O)O)c3ccccc3)c2=O)c1F [elagolix]
LH blood hormone level BEFORE medication intake ([1]; Example 2 patient 1, day 11, 50 mg elagolix tablet as vaginal suppository on days 9 and 11, clomiphene citrate 100 mg days 3-11, letrozole 5 mg days 3-7): 7.0 mIU/mL | LH blood hormone level AFTER medication intake ([1]; Example 2 patient 1, day 13, 50 mg elagolix vaginal suppository on days 9 and 11): 1.0 mIU/mL | LH blood hormone level AFTER medication intake ([1]; Example 2 patient 2, 50 mg elagolix vaginal suppository on days 9 and 11): 5.7 mIU/mL | LH blood hormone level AFTER medication intake ([1]; Example 2 patient 3, 50 mg elagolix vaginal suppository on days 9 and 11): 3.2 mIU/mL | LH blood hormone level AFTER medication intake [1, 3]: 1.7 mIU/mL | LH blood hormone level BEFORE medication intake [1, 3]: 8.2 mIU/mL | LH blood hormone level AFTER medication intake [1, 4]: 0.8 mIU/mL | LH blood hormone level BEFORE medication intake [1, 4]: 7 mIU/mL | GnRH antagonist effect in the patients ([1]; lower dose of elagolix taken as a vaginal suppository instead of orally): effective GnRH antagonist

CCN=C(NCC)NCCCC[C@H](NC(=O)[C@H](CC(C)C)NC(=O)[C@@H](CCCCNC(=NCC)NCC)NC(=O)[C@H](Cc1ccc(O)cc1)NC(=O)[C@H](CO)NC(=O)[C@@H](Cc1cccnc1)NC(=O)[C@@H](Cc1ccc(Cl)cc1)NC(=O)[C@@H](Cc1ccc2ccccc2c1)NC(C)=O)C(=O)N1CCC[C@H]1C(=O)N[C@H](C)C(N)=O [Ganirelex, ganirelix acetate] (Ac-[d2Nal][dPhe(4-Cl)][d3Pal]SY[d(hArg(Et2))]L[hArg(Et2)]P[dA]-NH2)
LH blood hormone level BEFORE medication intake ([2]; Example 1 patient 1, day 10, half a syringe of 150 mcg/0.5 mL ganirelix acetate on days 11 and 12, FSH 150 Units days 3-12, clomiphene citrate 50 mg days 3-12, letrozole 2.5 mg days 3-7): 4.3 mIU/mL | % Drop in blood LH hormone level ([2]; Example 1 patient 1, day 10 to day 12): 53.5% | % Drop in blood LH hormone level ([2]; Example 1 patient 1, day 10 to day 12, listed as Conventional Ganielex/Cetrotide Injectables): 53.5% | LH blood hormone level AFTER medication intake ([2]; Example 1 patient 1, day 12, half a syringe ganirelix acetate on days 11 and 12): 2 mIU/mL | LH blood hormone level AFTER medication intake ([2]; Example 1 patient 1, day 12, half a syringe ganirelix acetate on days 11 and 12, listed as Conventional Ganielex/Cetrotide Injectables): 2.0 mIU/mL | LH blood hormone level BEFORE medication intake ([2]; Example 1 patient 2, day 11, half a syringe of 150 mcg/0.5 mL ganirelix acetate on days 11 to 13, FSH 75 Units days 4-12 and 150 Units day 13, clomiphene citrate 50 mg days 10-12, letrozole 2.5 mg days 3-7): 12.0 mIU/mL | % Drop in blood LH hormone level ([2]; Example 1 patient 2, day 11 to day 13): 47.5% | % Drop in blood LH hormone level ([2]; Example 1 patient 2, day 11 to day 13, listed as Conventional Ganielex/Cetrotide Injectables): 47.5% | LH blood hormone level AFTER medication intake ([2]; Example 1 patient 2, day 13, half a syringe ganirelix acetate on days 11 to 13): 6.3 mIU/mL | LH blood hormone level BEFORE medication intake ([2]; Example 1 patient 3, day 10, one third a syringe of 150 mcg/0.5 mL ganirelix acetate on days 11 to 13, FSH 75 Units days 4-12, clomiphene citrate 50 mg days 4-12, letrozole 2.5 mg days 4-8): 12.0 mIU/mL | % Drop in blood LH hormone level ([2]; Example 1 patient 3, day 10 to day 12): 59.25% | % Drop in blood LH hormone level ([2]; Example 1 patient 3, day 10 to day 12, listed as Conventional Ganielex/Cetrotide Injectables): 59.2% | LH blood hormone level AFTER medication intake ([2]; Example 1 patient 3, day 12, one third a syringe ganirelix acetate on days 11 to 13): 4.9 mIU/mL | LH blood hormone level BEFORE medication intake ([2]; Example 1 patient 4, day 10, one third a syringe of 150 mcg/0.5 mL ganirelix acetate on days 11 to 13, FSH 150 Units days 4-12, clomiphene citrate 100 mg and letrozole 2.5 mg days 4-8, clomiphene citrate 50 mg days 9-11): 18.0 mIU/mL | % Drop in blood LH hormone level ([2]; Example 1 patient 4, day 10 to day 12): 11.1% | % Drop in blood LH hormone level ([2]; Example 1 patient 4, day 10 to day 12, listed as Conventional Ganielex/Cetrotide Injectables): 11.1% | LH blood hormone level AFTER medication intake ([2]; Example 1 patient 4, day 12, one third a syringe ganirelix acetate on days 11 to 13): 16.0 mIU/mL | LH blood hormone level BEFORE medication intake ([2]; Example 1 patient 5, day 10, one third a syringe of 150 mcg/0.5 mL ganirelix acetate on days 11 to 13, FSH 225 Units days 4-12, no clomiphene citrate or letrozole): 14.6 mIU/mL | % Drop in blood LH hormone level ([2]; Example 1 patient 5, day 10 to day 12): 3.4% | % Drop in blood LH hormone level ([2]; Example 1 patient 5, day 10 to day 12, listed as Conventional Ganielex/Cetrotide Injectables): 3.4% | LH blood hormone level AFTER medication intake ([2]; Example 1 patient 5, day 12, one third a syringe ganirelix acetate on days 11 to 13): 14.1 mIU/mL
